Experimental data taken from US8178535B2, “Substituted sulfonamide compounds having bradykinin 1 receptor activity and use thereof as medicaments” (Gruenenthal GmbH, priority 2008, dated 2012).

Key:
[1] = target: T1, B1R receptor of rats (rB1R) (Rattus norvegicus, UniProt P97583); assay: FLIPR Ca2+ assay (Fluo-4) on CHO K1 cells stably transfected with the B1R gene of rats; format: cell-based; conditions: CHO-K1; test substance 10 μM; agonist Des-Arg9-bradykinin 100 nM; % inhibition compared to the maximum achievable inhibition
T1 construct: host or cells: CHO K1 cells
T1 sequence (P97583 1-337): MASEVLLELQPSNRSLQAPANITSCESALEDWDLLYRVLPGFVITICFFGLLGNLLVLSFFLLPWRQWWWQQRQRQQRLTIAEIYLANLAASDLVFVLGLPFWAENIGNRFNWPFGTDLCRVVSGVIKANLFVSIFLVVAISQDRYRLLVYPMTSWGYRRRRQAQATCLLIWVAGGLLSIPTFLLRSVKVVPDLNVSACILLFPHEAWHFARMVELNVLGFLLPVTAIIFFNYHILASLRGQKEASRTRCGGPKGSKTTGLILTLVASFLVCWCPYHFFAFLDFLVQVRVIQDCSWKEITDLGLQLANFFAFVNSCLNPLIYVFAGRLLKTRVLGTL
Procedure: (§1) The agonistic or antagonistic action of compounds can be quantified on the bradykinin 1 receptor (B1R) of humans and rats with ectopically expressing cell lines (CHO K1 cells) and with the aid of a Ca^2+-sensitive dye (Fluo-4) in the fluorescent imaging plate reader (FLIPR). The figure in percent activation refers to the Ca^2+ signal after addition of Lys-Des-Arg^9-bradykinin (0.5 nM) and Des-Arg^9-bradykinin (100 nM). Antagonists result in a suppression of the Ca^2+ inflow after the addition of the agonist. Percent inhibition values are given in comparison to the maximum achievable inhibition. The compounds according to the invention act, for example, on the B1R which is implicated in various disease states. This means that the compounds of the invention are useful as pharmaceutically active substances in medicaments for the treatment and/or inhibition of such disease states.
(§2) The agonistic or antagonistic action of substances can be determined on the bradykinin 1 receptor (B1R) of humans and rats by means of the following assay. According to this assay the Ca^2+ inflow through the channel is quantified by means of a Ca^2+-sensitive dye (Fluo-4 type, Molecular Probes Europe BV, Leiden, Netherlands), in a Fluorescent Imaging Plate Reader (FLIPR, Molecular Devices, Sunnyvale, USA).
(§3) Chinese hamster ovary cells (CHO K1 cells) are used, which are stably transfected with the human B1R gene (hB1R cells, Euroscreen s.a., Gosselies, Belgium), or with the B1R gene of rats (rB1R cells, Axxam, Milan, Italy). For functional investigations these cells are plated out on black 96-well plates with a clear floor (BD Biosciences, Heidelberg, Germany) in a density of 20,000/25,000 cells/well. The cells are incubated overnight with 10 vol. % FBS (foetal bovine serum, Gibco Invitrogen GmbH, Karlsruhe, Germany) at 37° C. and 5% CO2 in a culture medium (hB1R cells: Nutrient Mixture Ham's F12, Gibco Invitrogen GmbH, Karlsruhe, Germany; rB1R cells: D-MEM/F12, Gibco Invitrogen GmbH, Karlsruhe, Germany). The following day the cells are charged for 60 minutes at 37° C. with 2.13 μM Fluo-4 (Molecular Probes Europe BV, Leiden, Netherlands) in HBSS buffer (Hank's buffered saline solution, Gibco Invitrogen GmbH, Karlsruhe, Germany) together with […] (Sigma-Aldrich, Taufkirchen, Germany) and 10 mM HEPES (Sigma-Aldrich, Taufkirchen, Germany).
(§4) The plates are then washed twice with HBSS buffer and HBSS buffer is added which additionally contains 0.1% BSA (bovine serum albumin; Sigma-Aldrich, Taufkirchen, Germany), 5.6 mM glucose and 0.05% gelatin (Merck KGaA, Darmstadt, Germany). After further incubation for 20 minutes at room temperature the plates are used for the Ca^2+ measurement in the FLIPR. The Ca^2+-dependent fluorescence is measured both before and after the addition of substances (λex=488 nm, λem=540 nm). The quantification is carried out by measuring the highest fluorescence intensity (FC, fluorescence counts) over time.
(§5) The FLIPR protocol consists of two substance additions. First, test substances (10 μM) are pipetted onto the cells and the Ca^2+ inflow is compared with the control (hB1R: Lys-Des-Arg9-bradykinin 0.5 nM; rB1R: Des-Arg9-bradykinin 100 nM). This gives the result in percent activation referred to the Ca^2+ signal after addition of Lys-Des-Arg9-bradykinin (0.5 nM), bzw. Des-Arg9-bradykinin (100 nM). After 10 minutes' incubation 0.5 nM Lys-Des-Arg9-bradykinin (hB1R) and 100 nM Des-Arg^9-bradykinin (rB1R) are applied and the inflow of Ca^2+ is likewise determined. Antagonists lead to a suppression of the Ca^2+ inflow. The percent inhibition compared to the maximum achievable inhibition is calculated. The compounds show a good activity on both human and rat receptors.
(§6) The agonistic and antagonistic action of the compounds according to the invention on the bradykinin 1 receptor (B1R) of humans and rats were determined as described above. Antagonists lead to a suppression of the Ca^2+ inflow. […]

[2] = target: T2, human B1R receptor (hB1R) (Homo sapiens, UniProt P46663); assay: FLIPR Ca2+ assay (Fluo-4) on CHO K1 cells stably transfected with the human B1R gene; format: cell-based; conditions: CHO-K1; test substance 10 μM; agonist Lys-Des-Arg9-bradykinin 0.5 nM; % inhibition compared to the maximum achievable inhibition
T2 construct: host or cells: CHO K1 cells
T2 sequence (P46663 1-353): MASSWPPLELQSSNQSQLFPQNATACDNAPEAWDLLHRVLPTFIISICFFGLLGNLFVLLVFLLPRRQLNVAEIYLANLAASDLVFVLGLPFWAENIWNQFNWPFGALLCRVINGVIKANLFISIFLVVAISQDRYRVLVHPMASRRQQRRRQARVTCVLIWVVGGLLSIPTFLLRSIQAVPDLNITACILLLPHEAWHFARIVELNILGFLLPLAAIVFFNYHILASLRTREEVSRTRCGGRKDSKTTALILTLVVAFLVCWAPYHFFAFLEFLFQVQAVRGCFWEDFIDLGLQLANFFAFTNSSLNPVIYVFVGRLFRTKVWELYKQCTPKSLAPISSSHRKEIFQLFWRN
Procedure: as §1, §2, §3, §4, §5, §6

inhibition at 10 µM [1] | inhibition at 10 µM [2] | SMILES
103% | 101% | Cc1cc(C)c(S(=O)(=O)N2CCCCC2COCC(=O)N2CCn3c(CN4CCCC4)ccc3C2c2ccccc2)c(C)c1 (centres unmarked) [(47), 2-((1-(mesitylsulfonyl)piperidin-2-yl)methoxy)-1-(1-phenyl-6-(pyrrolidin-1-yl-methyl)-3,4-dihydropyrrolo[1,2-a]pyrazin-2(1H)-yl)ethanone]
100% | 97% | COc1cc(C)c(S(=O)(=O)N2CCCCC2CCC(=O)N2CCn3c(Cc4cccnc4)ccc3C2)c(C)c1 (centres unmarked) [(113), 3-(1-(4-Methoxy-2,6-dimethylphenylsulfonyl)piperidin-2-yl)-1-(6-(pyridin-3-ylmethyl)-3,4-dihydropyrrolo[1,2-a]pyrazin-2(1H)-yl)propan-1-one]
98% | 100% | COc1cc(C)c(S(=O)(=O)N2CCCCC2COCC(=O)N2CCn3c(CCc4cccnc4)ccc3C2)c(C)c1 (centres unmarked) [(101), 2-((1-(4-Methoxy-2,6-dimethylphenylsulfonyl)piperidin-2-yl)methoxy)-1-(6-(2-(pyridin-3-yl)ethyl)-3,4-dihydropyrrolo[1,2-a]pyrazin-2(1H)-yl)ethanone]
96% | 99% | COc1cc(C)c(S(=O)(=O)N2CCCCC2COCC(=O)N2CCn3c(ccc3-c3cccnc3)C2)c(C)c1 (centres unmarked) [(89), 2-((1-(4-Methoxy-2,6-dimethylphenylsulfonyl)piperidin-2-yl)methoxy)-1-(6-(pyridin-3-yl)-3,4-dihydropyrrolo[1,2-a]pyrazin-2(1H)-yl)ethanone]
91% | 101% | O=C(COCC1CCc2ccccc2N1S(=O)(=O)c1ccc(Cl)c(Cl)c1)N1CCn2c(CN3CCCC3)ccc2C1 (centres unmarked) [(10), 2-((1-(3,4-dichlorophenylsulfonyl)-1,2,3,4-tetrahydroquinolin-2-yl)methoxy)-1-(6-(pyrrolidin-1-ylmethyl)-3,4-dihydropyrrolo[1,2-a]pyrazin-2(1H)-yl)ethanone]
92% | 48% | CN1CCN(CCCc2ccc3n2CCN(C(=O)COCC2CCc4ccccc4N2S(=O)(=O)c2ccc(Cl)c(Cl)c2)C3)CC1 (centres unmarked) [(16), 2-((1-(3,4-dichlorophenylsulfonyl)-1,2,3,4-tetrahydroquinolin-2-yl)methoxy)-1-(6-(3-(4-methylpiperazin-1-yl)propyl)-3,4-dihydropyrrolo[1,2-a]pyrazin-2(1H)-yl)ethanone]
102% | 72% | COc1cc(C)c(S(=O)(=O)N2CCCCC2CCC(=O)N2CCn3c(Cc4ccncc4)ccc3C2)c(C)c1 (centres unmarked) [(99), 3-(1-(4-Methoxy-2,6-dimethylphenylsulfonyl)piperidin-2-yl)-1-(6-(pyridin-4-ylmethyl)-3,4-dihydropyrrolo[1,2-a]pyrazin-2(1H)-yl)propan-1-one]

Further lines, the compound ahead of its results:

SMILES | inhibition at 10 µM [1] | inhibition at 10 µM [2]
COc1cc(C)c(S(=O)(=O)N2CCCCC2CCC(=O)N2CCn3cc(Cc4ccncc4)nc3C2)c(C)c1 (centres unmarked) [(121), 3-(1-(4-Methoxy-2,6-dimethylphenylsulfonyl)piperidin-2-yl)-1-(2-(pyridin-4-ylmethyl)-5,6-dihydroimidazo[1,2-a]pyrazin-7(8H)-yl)propan-1-one] | 51% | 66%
COc1cc(C)c(S(=O)(=O)N2CCCCC2COCC(=O)N2CCn3cc(-c4ccncc4)nc3C2)c(C)c1 (centres unmarked) [(112), 2-((1-(4-Methoxy-2,6-dimethylphenylsulfonyl)piperidin-2-yl)methoxy)-1-(2-(pyridin-4-yl)-5,6-dihydroimidazo[1,2-a]pyrazin-7(8H)-yl)ethanone] | 101% | 100%
COc1cc(C)c(S(=O)(=O)N2CCCCC2CCCC(=O)N2CCn3cc(-c4ccncc4)nc3C2)c(C)c1 (centres unmarked) [(100), 4-(1-(4-Methoxy-2,6-dimethylphenylsulfonyl)piperidin-2-yl)-1-(2-(pyridin-4-yl)-5,6-dihydroimidazo[1,2-a]pyrazin-7(8H)-yl)butan-1-one] | 101% | 85%
COc1cc(C)c(S(=O)(=O)N2CCCCC2COCC(=O)N2CCn3c(CN(C)C)ccc3C2Cc2ccccc2)c(C)c1 (centres unmarked) [(65), 1-(1-benzyl-6-((dimethylamino)methyl)-3,4-dihydropyrrolo[1,2-a]pyrazin-2(1H)-yl)-2-((1-(4-methoxy-2,6-dimethylphenylsulfonyl)piperidin-2-yl)methoxy)ethanone] | 100% | 102%
COc1cccc(C2c3cccn3CCN2C(=O)COCC2CCCCN2S(=O)(=O)c2c(C)cc(OC)cc2C)c1 (centres unmarked) [(31), 2-((1-(4-methoxy-2,6-dimethylphenylsulfonyl)piperidin-2-yl)methoxy)-1-(1-(3-methoxyphenyl)-3,4-dihydropyrrolo[1,2-a]pyrazin-2(1H)-yl)ethanone] | 98% | 96%
COc1cc(C)c(S(=O)(=O)N2CCCCC2COCC(=O)N2CCn3cccc3C2c2cccc(C(F)(F)F)c2)c(C)c1 (centres unmarked) [(30), 2-((1-(4-methoxy-2,6-dimethylphenylsulfonyl)piperidin-2-yl)methoxy)-1-(1-(3-(trifluoromethyl)phenyl)-3,4-dihydropyrrolo[1,2-a]pyrazin-2(1H)-yl)ethanone] | 98% | 58%
Cc1cc(C)c(S(=O)(=O)N2CCCCC2COCC(=O)N2CCn3cccc3C2c2ccccc2)c(C)c1 (centres unmarked) [(39), 2-((1-(mesitylsulfonyl)piperidin-2-yl)methoxy)-1-(1-phenyl-3,4-dihydropyrrolo[1,2-a]pyrazin-2(1H)-yl)ethanone] | 99% | 77%
Cc1cc(C)c(S(=O)(=O)N2CCCCC2COCC(=O)N2CCn3cccc3C2c2ccc(Cl)nc2)c(C)c1 (centres unmarked) [(36), 1-(1-(6-chloropyridin-3-yl)-3,4-dihydropyrrolo[1,2-a]pyrazin-2(1H)-yl)-2-((1-(mesitylsulfonyl)piperidin-2-yl)methoxy)ethanone] | 99% | 99%
Cc1cc(C)c(S(=O)(=O)N2CCCCC2COCC(=O)N2CCn3c(CN(C)C)ccc3C2c2cccs2)c(C)c1 (centres unmarked) [(53), 1-(6-((dimethylamino)methyl)-1-(thiophen-2-yl)-3,4-dihydropyrrolo[1,2-a]pyrazin-2(1H)-yl)-2-((1-(mesitylsulfonyl)piperidin-2-yl)methoxy)ethanone] | 102% | 92%
